{
  "source": "ChEMBL document CHEMBL1150137",
  "about": "“Nanjiols A-C, new steroids from the Chinese soft coral Nephthea bayeri” (J Nat Prod, 2002)",
  "test_system": "HL-60",
  "assay": "Cytotoxicity against human HL60 cells",
  "assay_type": "functional, cell-based",
  "data": [
    {"smiles": "CC(=O)O[C@H]1C[C@H]2[C@@H]3CCC4=CC(=O)CC[C@]4(C)[C@H]3C[C@@H](OC(C)=O)[C@]2(C)[C@H]1[C@@](C)(O)CCCC(C)C", "note": "[NANJIOL B]", "values": [
      {"measurement": "IC50", "value": 5, "unit": "µg/mL"}
    ]}
  ]
}
